Literature values as cited in article PMC11434290, “Pharmacokinetics and Dose Proportionality Study of a Novel Antiparkinsonian Agent, a 1H-1,2,4-Triazol-3-ylthio-conjugate of Prottremine” (Molecules, 2024).

Experiments:
[1] = tested on: MPTP-, haloperidol-, and rotenone-induced models; conditions: various mouse and rat models (MPTP-, haloperidol-, rotenone-induced); cited from earlier work
mice = conditions: acute toxicity; cited from earlier work

Row | Structure (SMILES) | Dose showing antiparkinsonian activity [1] | LD50 (mice)
1 | C=C(C)[C@@H]1CC=C(C)[C@@H](O)[C@@H]1O [Prottremine, (1R,2R,6S)-3-methyl-6-(prop-1-en-2-yl)cyclohex-3-ene-1,2-diol] | 20 mg/kg | 4250 mg/kg
2 | N[C@@H](Cc1ccc(O)c(O)c1)C(=O)O [L-DOPA, reference compound] | 50 to 100 mg/kg | –
